Measured values published in PMC6290556, “1,4-Disubstituted Thiosemicarbazide Derivatives are Potent Inhibitors of Toxoplasma gondii Proliferation” (Molecules, 2014).
Values after ≈ are worked out from the molar mass of the structure shown. Read-outs that look alike come from different tables or passages of the source.

How the values were obtained:
[1] = target: bacterial topoisomerase IV; parameters: method as in PMID 21080016; conditions: cited from earlier work
[2] = test system: T. gondii RH strain tachyzoites; experiment: [3H]uracil incorporation assay of T. gondii proliferation in L929 host cells; type: cell-based; conditions: Toxoplasma gondii, L929, read-out: IC50 (50% of T. gondii proliferation inhibition in vitro)
[3] = MTT cell viability assay (ISO 10993-5); type: cell-based, mouse; conditions: mouse, 24 h, ± SD
Protocol: (§1) Cell line L929 (ATTC® Catalog No. […] The MTT assay was used according to international standards: ISO 10993-5:2009(E), Biological evaluation of medical devices, Part 5: Tests for in vitro cytotoxicity. […] Then, 1 mg/mL MTT (50 μL/well) was added to each well and incubated at 37 °C, 10% CO2 for 2 h. Mitochondrial dehydrogenases of viable cells reduced the yellowish water-soluble MTT to water-insoluble formazan crystals, which were solubilized with dimethyl sulfoxide (DMSO). The cell culture medium was aspirated cautiously, after which 150 μL DMSO was added to each well and mixed thoroughly. Optical density (OD) was read on the ELISA reader (Multiskan EX, Labsystems, Vienna, VA, USA) at 550 nm. […] All experiments were performed in triplicate.

[4] = test system: Gram-positive and Gram-negative bacterial strains; experiment: antibacterial assay (disc diffusion / agar dilution); type: cell-based; conditions: even at high concentrations
Description: The following microorganisms were used in this study: Staphylococcus aureus (ATCC 25923, ATCC 6538, ATCC 29213, NCTC 4163), Staphylococcus epidermidis ATCC 12228, Bacillus subtilis ATCC 6633, Bacillus cereus ATCC 11778, Micrococcus luteus (ATCC 9341, ATCC 10240), Escherichia coli (ATCC 10538, ATCC 25922, NCTC 8196), […] NCTC 4635, Pseudomonas aeruginosa (ATCC 15442, ATCC 27853, NCTC 6749), and Bordetella bronchiseptica ATCC 4617. Initially, antibacterial activity of thiosemicarbazide derivatives was screened on the basis of growth inhibition zone (giz) utilizing the disc diffusion method, according to the Clinical and Laboratory Standards Institute guidelines. For compounds showing the inhibitory effect on the growth of tested bacteria, monitored as an appearance of giz, the minimal inhibitory concentrations (MICs) were determined using agar dilution method, according to the Clinical and Laboratory Standards Institute guidelines. The minimal inhibitory concentrations (MICs) were defined as the lowest concentration of the compound preventing growth of the tested microorganism. In both methods, recommended Mueller-Hinton II agar medium (Becton Dickinson, Heidelberg, Germany) was used. Solutions containing the tested agents were prepared in methanol or DMSO. Ciprofloxacin was used as control antimicrobial agent.

topoisomerase IV = target: T1, topoisomerase IV (Staphylococcus aureus, UniProt P0C1S7+P0C1U9); experiment: S. aureus topoisomerase IV decatenation assay; type: biochemical
T1 construct: purchased Inspiralis
T1 sequence (P0C1U9 whole entry): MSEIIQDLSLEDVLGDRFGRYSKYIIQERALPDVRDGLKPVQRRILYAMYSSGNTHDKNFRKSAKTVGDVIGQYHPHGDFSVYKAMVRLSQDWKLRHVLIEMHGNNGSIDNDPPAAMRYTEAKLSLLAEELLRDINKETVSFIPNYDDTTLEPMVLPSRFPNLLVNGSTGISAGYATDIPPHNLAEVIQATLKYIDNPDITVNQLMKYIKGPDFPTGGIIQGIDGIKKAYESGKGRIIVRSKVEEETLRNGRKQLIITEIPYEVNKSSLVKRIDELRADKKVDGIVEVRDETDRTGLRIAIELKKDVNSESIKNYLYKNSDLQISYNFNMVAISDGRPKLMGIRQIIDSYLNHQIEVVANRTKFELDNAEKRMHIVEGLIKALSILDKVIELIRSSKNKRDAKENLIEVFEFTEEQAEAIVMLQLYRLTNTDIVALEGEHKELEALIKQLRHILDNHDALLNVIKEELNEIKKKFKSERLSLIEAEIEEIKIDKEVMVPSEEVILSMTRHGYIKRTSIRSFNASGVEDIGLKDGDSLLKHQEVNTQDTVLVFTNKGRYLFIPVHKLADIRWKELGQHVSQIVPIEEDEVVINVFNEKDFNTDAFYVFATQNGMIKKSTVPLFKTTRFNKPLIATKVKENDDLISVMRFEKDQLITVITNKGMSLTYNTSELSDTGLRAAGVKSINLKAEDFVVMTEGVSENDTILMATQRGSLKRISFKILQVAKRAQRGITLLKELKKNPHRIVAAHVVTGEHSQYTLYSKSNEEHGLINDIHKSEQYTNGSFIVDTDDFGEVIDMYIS
T1 sequence (P0C1S7 whole entry): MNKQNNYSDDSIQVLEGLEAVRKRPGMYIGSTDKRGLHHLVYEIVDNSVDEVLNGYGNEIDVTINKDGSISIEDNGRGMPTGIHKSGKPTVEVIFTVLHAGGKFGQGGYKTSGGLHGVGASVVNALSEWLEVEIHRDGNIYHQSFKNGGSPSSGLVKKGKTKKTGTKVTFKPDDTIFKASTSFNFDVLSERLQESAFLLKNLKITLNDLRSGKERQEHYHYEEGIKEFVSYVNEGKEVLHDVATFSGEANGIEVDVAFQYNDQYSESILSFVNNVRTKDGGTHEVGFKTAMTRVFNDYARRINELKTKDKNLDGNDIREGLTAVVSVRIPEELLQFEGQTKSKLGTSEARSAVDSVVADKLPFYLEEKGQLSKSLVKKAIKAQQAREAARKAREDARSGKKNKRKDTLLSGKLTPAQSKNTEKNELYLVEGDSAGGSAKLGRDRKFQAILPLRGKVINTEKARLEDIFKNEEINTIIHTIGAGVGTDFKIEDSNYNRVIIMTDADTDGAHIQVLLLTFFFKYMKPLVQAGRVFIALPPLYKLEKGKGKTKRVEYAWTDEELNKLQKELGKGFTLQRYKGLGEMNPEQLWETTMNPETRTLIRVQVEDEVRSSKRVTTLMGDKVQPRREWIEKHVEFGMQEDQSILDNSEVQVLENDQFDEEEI
Protocol: The assays were performed using S. aureus topoisomerase IV decatenation kits (Inspiralis). Interlinked kDNA substrate ([…]) was incubated with 1 unit of topoisomerase IV (Inspiralis), in the dedicated decatenation assay buffer supplied by the manufacturer, in the presence of varying concentrations of the compounds tested. Reactions were carried out at 37 °C for 1 h and then terminated by the addition of equal volume of 2× STOP Buffer (40% sucrose, 100 mM Tris-Cl pH 7.5, 1 mM EDTA, 0.5 mg/mL bromophenol blue) and chloroform/isoamyl alcohol. Samples were vortexed, centrifuged and run through a 15 cm 1% agarose gel in TAE buffer for 1.5 h at 80 V. Gels were stained with ethidium bromide and visualized under UV light. The concentrations of the inhibitor that prevented 50% of the kinetoplast DNA from being converted into decatenated minicircles (IC50 values) were determined by plotting the results obtained from the densytometric analyses of the gel images using Quantity One software (BioRad, Hercules, CA, USA).

[5] = test system: T. gondii RH strain tachyzoites; experiment: [3H]uracil incorporation assay of T. gondii proliferation in L929 host cells; type: cell-based, Toxoplasma gondii; conditions: assay A [3H]uracil incorporation, vs untreated blank
Protocol: In the next step of our studies, the prepared 1,4-disubstituted thiosemicarbazides (series 1–3) were used to assess the inhibition of T. gondii growth in vitro. For this purpose, intracellular parasites (tachyzoites) of RH strain were incubated with different concentrations of the thiosemicarbazides ranging from 1 to 100 µg/mL. Inhibition of the parasite growth was monitored by measuring the specific incorporation of [^3H]uracil in the parasite’s nucleic acids.
The tachyzoites of T. gondii strain RH – intraspecies type I (ATCC_ Number 50174™) were maintained through passages on female C57BL/6 (H-2^b) and BALB/c (H-2^d) mice with genetically determined high and low susceptibility (respectively) to T. gondii infection (10–12 weeks old). Tachyzoites washed out from the peritoneum cavity were once expanded in vitro on L929 cells.
L929, (2 × 10^4 cells/100 µL/well) were grown in complete medium (IMDM) on 96-well plates. After 24 h incubation, a medium was removed and then T. gondii RH tachyzoites, suspended in culture medium supplemented with 1.0, 5.0, 10.0, 50.0 and 100.0 μg/mL 1,4-disubstituted thiosemicarbazides (1g, 2b, 2m, 3d, 3l) and as a control-sulfadiazine, were added (2 × 10^5 tachyzoites/200 µL/well) to the cell monolayers. After subsequent 48 h incubation 1 µCi/well of [^3H] uracil (Moravek Biochemicals Inc., Brea, CA, USA) was applied to each microculture for further 18–20 h. The amount of the isotope incorporated into the parasite nucleic acid pool, corresponding to the parasite growth, was measured by liquid scintillation counting with 1450 Microbeta Plus Liquid Scintillation Counter (Wallac Oy, Turku, Finland).

DNA gyrase = target: T2, DNA gyrase (Staphylococcus aureus, UniProt P0A0K8+P20831); experiment: S. aureus gyrase supercoiling assay; type: biochemical
T2 construct: purchased Inspiralis
T2 sequence (P0A0K8 whole entry): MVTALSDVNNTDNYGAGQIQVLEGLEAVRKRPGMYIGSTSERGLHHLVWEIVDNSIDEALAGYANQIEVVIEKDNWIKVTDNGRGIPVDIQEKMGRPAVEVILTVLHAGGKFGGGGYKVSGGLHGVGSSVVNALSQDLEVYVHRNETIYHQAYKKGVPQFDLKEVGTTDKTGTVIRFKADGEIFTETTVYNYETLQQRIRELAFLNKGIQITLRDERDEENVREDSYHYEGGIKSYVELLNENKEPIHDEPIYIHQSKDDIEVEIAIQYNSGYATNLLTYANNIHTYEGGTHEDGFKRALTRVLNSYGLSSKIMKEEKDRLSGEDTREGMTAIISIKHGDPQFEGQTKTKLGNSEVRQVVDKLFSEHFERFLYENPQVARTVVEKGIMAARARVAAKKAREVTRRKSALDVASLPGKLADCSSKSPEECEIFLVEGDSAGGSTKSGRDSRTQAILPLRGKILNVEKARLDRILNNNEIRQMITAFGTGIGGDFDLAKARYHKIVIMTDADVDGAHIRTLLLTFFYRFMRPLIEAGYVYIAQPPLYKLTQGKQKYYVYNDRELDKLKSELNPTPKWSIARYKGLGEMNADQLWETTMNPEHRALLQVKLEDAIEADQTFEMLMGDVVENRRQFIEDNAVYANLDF
T2 sequence (P20831 whole entry): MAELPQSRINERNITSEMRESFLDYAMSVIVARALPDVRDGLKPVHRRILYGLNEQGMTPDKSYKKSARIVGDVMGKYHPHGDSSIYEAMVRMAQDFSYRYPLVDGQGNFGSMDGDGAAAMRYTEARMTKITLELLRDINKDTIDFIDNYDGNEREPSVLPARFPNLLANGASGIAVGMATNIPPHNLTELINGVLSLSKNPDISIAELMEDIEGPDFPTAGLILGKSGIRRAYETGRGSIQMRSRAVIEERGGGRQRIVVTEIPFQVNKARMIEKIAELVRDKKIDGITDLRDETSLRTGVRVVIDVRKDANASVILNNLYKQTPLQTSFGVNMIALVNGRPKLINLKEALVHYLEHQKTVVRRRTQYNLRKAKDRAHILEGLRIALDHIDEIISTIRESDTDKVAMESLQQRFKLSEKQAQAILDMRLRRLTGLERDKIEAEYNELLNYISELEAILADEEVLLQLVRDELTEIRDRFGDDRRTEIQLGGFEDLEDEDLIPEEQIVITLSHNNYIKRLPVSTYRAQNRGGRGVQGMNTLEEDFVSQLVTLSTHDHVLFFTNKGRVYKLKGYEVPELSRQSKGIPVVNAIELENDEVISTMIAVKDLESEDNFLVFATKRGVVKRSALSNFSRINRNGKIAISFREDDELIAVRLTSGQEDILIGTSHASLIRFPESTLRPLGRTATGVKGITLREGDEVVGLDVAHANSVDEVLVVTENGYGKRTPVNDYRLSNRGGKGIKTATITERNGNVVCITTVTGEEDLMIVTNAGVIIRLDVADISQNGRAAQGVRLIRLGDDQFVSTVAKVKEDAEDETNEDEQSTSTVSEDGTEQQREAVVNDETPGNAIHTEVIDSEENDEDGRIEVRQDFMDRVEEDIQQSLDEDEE
Protocol: The assays were performed using S. aureus Gyrase Supercoiling Assay Kits (Inspiralis, Norwich, UK). Briefly, […] pBR322 plasmid DNA ([…]) was incubated with 1 unit of gyrase, in the dedicated supercoiling assay buffer supplied by the manufacturer, in the presence of varying concentrations of the compounds tested. Reactions were carried out at 37 °C for 1 h and then terminated by the addition of equal volume of 2 × STOP Buffer (40% sucrose, 100 mM Tris-Cl pH 7.5, 1 mM EDTA, and 0.5 mg/mL bromophenol blue) and chloroform/isoamyl alcohol. Samples were vortexed, centrifuged and run through a 15 cm 1% agarose gel in TAE buffer (40 mM Trisacetate, 2 mM EDTA) for 3 h at 50 V. Gels were stained with ethidium bromide and visualized under UV light.

T. gondii RH strain = experiment: quantitative real-time PCR (B1 gene) of T. gondii in infected L929 cells; type: cell-based, Toxoplasma gondii; conditions: assay B qRT-PCR, L929 host cells
Protocol: T. gondii genomic DNA was isolated from the tachyzoites of RH strain with Wizard® SV Genomic DNA Purification System (Promega, Madison, WI, USA) according to the manufacturer’s instruction. The DNA concentration and purity were measured using a NanoPhotometer (Implen, München, Germany), while the integrity of the extracted DNA was tested using an ethidium bromide-stained agarose gel. DNA was used for the detection and quantitationof T. gondii in analyzed samples and it was stored at −20 °C until use.
A quantitative real-time PCR (qRT-PCR) assay, targeting B1 gene was performed to detect and to quantitate T. gondii in analyzed samples (1g, 2b, 2m, 3d, 3l and sulphadiazine) according to the modified protocol of Wahab et al.. […] Amplification was carried out on a 7900HT real-time PCR system (Applied Biosystems, Carlsbad, CA, USA). The reaction mixtures (25 µL) consisted of 1x TaqMan PCR master mix supplemented with ROX (Applied Biosystems), 300 nM probe, 900 nM of each primer and 2 µL of template DNA. For quantification a standard curve was constructed using 10-fold serial dilutions of DNA extracted from a known number of T. gondii. The cycling parameters were: 50 °C for 2 min, initial activation at 95 °C for 10 min, and 45 two-step cycles of 95 °C for 15 s and 60 °C for 1 min. All samples were analyzed in triplicate.

L929 cells = experiment: MTT cell viability assay (ISO 10993-5); type: cell-based, mouse; conditions: L929 cells
Protocol: as §1

[6] = test system: Gram-positive bacterial species and clinical isolates of Staphylococcus aureus; parameters: method as in PMID 23428849; conditions: all test microorganisms; cited from earlier work
infected cells = test system: infected cells; parameters: method as in PMID 20541294; conditions: read-out: LC50 for infected cells; cited from earlier work
[7] = read-out: viability of L929 cells

Compound: Cc1nc[nH]c1C(=O)NNC(=S)NC(=O)c1ccccc1 [4-benzoyl-1-(4-methyl-imidazol-5-yl)carbonylthiosemicarbazide]
- IC50 [1]: 90 µg/mL (≈ 297 µM)

Compound: O=C(NC(=S)NNC(=O)c1cc2ccccc2[nH]1)c1ccccc1 [4-benzoyl-1-(indol-2-yl)carbonyl-thiosemicarbazide]
- IC50 [1]: 14 µg/mL (≈ 41.4 µM)

Compound: O=C(NNC(=S)Nc1ccc(F)cc1)c1cccs1 [Compound 1g, 4-(4-fluorophenyl)-1-(thiophen-2-yl)carbonylthiosemicarbazide]
- IC50 [2]: 33.2 µg/mL (≈ 112 µM)
- viability at 24 h, 1 µg/mL [3, 7]: 103 ± 2.69%
- viability at 24 h, 5 µg/mL [3, 7]: 99.5 ± 5.16%
- viability at 24 h, 10 µg/mL [3, 7]: 97.3 ± 4.98%
- viability at 24 h, 50 µg/mL [3, 7]: 79 ± 2.89%
- viability at 24 h, 100 µg/mL [3, 7]: 67 ± 11.4%
- viability at 24 h, 500 µg/mL [3, 7]: 39.8 ± 5.83%
- growth-inhibiting effect on bacterial strains [4]: no growth-inhibiting effect
- inhibitory effect on topoisomerase IV (topoisomerase IV): No inhibitory effect
- intensity of T. gondii proliferation ([5]; 1 µg/mL): 96.14 ± 14.54%
- intensity of T. gondii proliferation ([5]; 5 µg/mL): 74.94 ± 7.00 %
- intensity of T. gondii proliferation ([5]; 10 µg/mL): 44.71 ± 16.60 %
- intensity of T. gondii proliferation ([5]; 50 µg/mL): 12.62 ± 4.78 %
- inhibitory effect on DNA gyrase (DNA gyrase): No inhibitory effect
- intensity of T. gondii proliferation (T. gondii RH strain; 10 µg/mL): 61.01 ± 11.23 %
- intensity of T. gondii proliferation (T. gondii RH strain; 50 µg/mL): 5.00 ± 2.56 %

Compound: Cc1nnsc1C(=O)NNC(=S)Nc1ccccc1Br [Compound 3d]
- IC50 [2]: 74.9 µg/mL (≈ 201 µM)
- viability at 24 h, 1 µg/mL ([3]; L929 mouse fibroblast cells): 102 ± 3.89%
- viability at 24 h, 5 µg/mL ([3]; L929 mouse fibroblast cells): 99.14 ± 0.82%
- viability at 24 h, 10 µg/mL ([3]; L929 mouse fibroblast cells): 97.5 ± 5.98%
- viability at 24 h, 50 µg/mL ([3]; L929 mouse fibroblast cells): 90.9 ± 6.71%
- viability at 24 h, 100 µg/mL ([3]; L929 mouse fibroblast cells): 79.5 ± 5.82%
- viability at 24 h, 500 µg/mL ([3]; L929 mouse fibroblast cells): 41.5 ± 5.16%
- CC30 (concentration required for 30% proliferation inhibition in vitro) (L929 cells): 242.56 µg/mL
- antibacterial screening [6]: ineffective
- intensity of T. gondii proliferation ([5]; 1 µg/mL): 90.03 ± 14.61%
- intensity of T. gondii proliferation ([5]; 5 µg/mL): 84.64 ± 15.68%
- intensity of T. gondii proliferation ([5]; 10 µg/mL): 83.84 ± 19.01%
- intensity of T. gondii proliferation ([5]; 50 µg/mL): 63.82 ± 5.32 %
- intensity of T. gondii proliferation ([5]; 100 µg/mL): 36.52 ± 5.16 %
- intensity of T. gondii proliferation (T. gondii RH strain; 50 µg/mL): 75.13 ± 10.10 %
- intensity of T. gondii proliferation (T. gondii RH strain; 100 µg/mL): 25.56 ± 6.32 %

Compound: Cc1nnsc1C(=O)NNC(=S)Nc1ccc(F)cc1F [Compound 3l]
- IC50 [2]: 92.3 µg/mL (≈ 280 µM)
- viability at 24 h, 1 µg/mL ([3]; L929 mouse fibroblast cells): 96.54 ± 0.69%
- viability at 24 h, 5 µg/mL ([3]; L929 mouse fibroblast cells): 92.87 ± 0.23%
- viability at 24 h, 10 µg/mL ([3]; L929 mouse fibroblast cells): 95.89 ± 0.39%
- viability at 24 h, 50 µg/mL ([3]; L929 mouse fibroblast cells): 99 ± 10%
- viability at 24 h, 100 µg/mL ([3]; L929 mouse fibroblast cells): 89.5 ± 3.44%
- viability at 24 h, 500 µg/mL ([3]; L929 mouse fibroblast cells): 48 ± 10.1%
- CC30 (concentration required for 30% proliferation inhibition in vitro) (L929 cells): 285.52 µg/mL
- antibacterial screening [6]: ineffective
- intensity of T. gondii proliferation ([5]; 1 µg/mL): 84.59 ± 16.61%
- intensity of T. gondii proliferation ([5]; 5 µg/mL): 85.76 ± 19.71%
- intensity of T. gondii proliferation ([5]; 10 µg/mL): 103.21 ± 19.27%
- intensity of T. gondii proliferation ([5]; 50 µg/mL): 88.34 ± 14.40 %
- intensity of T. gondii proliferation ([5]; 100 µg/mL): 37.20 ± 7.47 %
- intensity of T. gondii proliferation (T. gondii RH strain; 50 µg/mL): 89.32 ± 15.74 %
- intensity of T. gondii proliferation (T. gondii RH strain; 100 µg/mL): 14.08 ± 3.35 %

Compound: NC(=O)NO [hydroxyurea]
- CC50 (infected cells): > 10 mM

Compound: Nc1ccc(S(=O)(=O)Nc2ncccn2)cc1 [sulfadiazine, reference compound]
- IC50 [2]: > 500 µg/mL
- CC50 (infected cells): > 10 mM
- intensity of T. gondii proliferation (T. gondii RH strain; 100 µg/mL): 63.99 ± 10.58 %
